In the NIST ThermoML archive (doi:10.1021/acs.jced.8b00438):

Test: xn = mol fraction of the nth substance listed
Conditions: 100 kPa, Liquid; for viscosity: Falling or rolling sphere viscometry; for mass density: Vibrating tube method

C1CCC(C2CCCCC2)CC1 [1,1'-bicyclohexyl] + CCCCCCCCCCCC
Conditions | mass density [kg/m3] | viscosity [mPa·s]
293.15 K, x2 = 0 | 886.05 | 4.003
293.15 K, x2 = 0.1055 | 869.17 | 3.406
293.15 K, x2 = 0.2016 | 854.56 | 3
293.15 K, x2 = 0.3019 | 839.7 | 2.637
293.15 K, x2 = 0.398 | 825.91 | 2.369
293.15 K, x2 = 0.5006 | 811.71 | 2.166
293.15 K, x2 = 0.5953 | 798.95 | 1.998
293.15 K, x2 = 0.6911 | 786.49 | 1.839
293.15 K, x2 = 0.7985 | 772.97 | 1.697
293.15 K, x2 = 0.8888 | 761.97 | 1.62
298.15 K, x2 = 0 | 882.44 | 3.53
298.15 K, x2 = 0.1055 | 865.58 | 3.025
298.15 K, x2 = 0.2016 | 850.98 | 2.681
298.15 K, x2 = 0.3019 | 836.11 | 2.366
298.15 K, x2 = 0.398 | 822.33 | 2.136
298.15 K, x2 = 0.5006 | 808.14 | 1.955
298.15 K, x2 = 0.5953 | 795.38 | 1.811
298.15 K, x2 = 0.6911 | 782.91 | 1.672
298.15 K, x2 = 0.7985 | 769.38 | 1.548
298.15 K, x2 = 0.8888 | 758.37 | 1.466
303.15 K, x2 = 0 | 878.84 | 3.137
303.15 K, x2 = 0.1055 | 861.99 | 2.706
303.15 K, x2 = 0.2016 | 847.4 | 2.411
303.15 K, x2 = 0.3019 | 832.52 | 2.138
303.15 K, x2 = 0.398 | 818.74 | 1.938
303.15 K, x2 = 0.5006 | 804.55 | 1.777
303.15 K, x2 = 0.5953 | 791.78 | 1.652
303.15 K, x2 = 0.6911 | 779.31 | 1.529
303.15 K, x2 = 0.7985 | 765.77 | 1.417
303.15 K, x2 = 0.8888 | 754.75 | 1.331
308.15 K, x2 = 0 | 875.25 | 2.81
308.15 K, x2 = 0.1055 | 858.41 | 2.438
308.15 K, x2 = 0.2016 | 843.81 | 2.182
308.15 K, x2 = 0.3019 | 828.94 | 1.943
308.15 K, x2 = 0.398 | 815.15 | 1.766
308.15 K, x2 = 0.5006 | 800.96 | 1.624
308.15 K, x2 = 0.5953 | 788.19 | 1.513
308.15 K, x2 = 0.6911 | 775.71 | 1.405
308.15 K, x2 = 0.7985 | 762.15 | 1.305
308.15 K, x2 = 0.8888 | 751.13 | 1.223
313.15 K, x2 = 0 | 871.66 | 2.532
313.15 K, x2 = 0.1055 | 854.82 | 2.209
313.15 K, x2 = 0.2016 | 840.23 | 1.985
313.15 K, x2 = 0.3019 | 825.35 | 1.776
313.15 K, x2 = 0.398 | 811.56 | 1.618
313.15 K, x2 = 0.5006 | 797.36 | 1.492
313.15 K, x2 = 0.5953 | 784.58 | 1.393
313.15 K, x2 = 0.6911 | 772.09 | 1.298
313.15 K, x2 = 0.7985 | 758.53 | 1.206
313.15 K, x2 = 0.8888 | 747.5 | 1.131
318.15 K, x2 = 0 | 868.08 | 2.296
318.15 K, x2 = 0.1055 | 851.24 | 2.012
318.15 K, x2 = 0.2016 | 836.64 | 1.815
318.15 K, x2 = 0.3019 | 821.76 | 1.629
318.15 K, x2 = 0.398 | 807.96 | 1.489
318.15 K, x2 = 0.5006 | 793.76 | 1.377
318.15 K, x2 = 0.5953 | 780.98 | 1.288
318.15 K, x2 = 0.6911 | 768.48 | 1.203
318.15 K, x2 = 0.7985 | 754.91 | 1.119
318.15 K, x2 = 0.8888 | 743.86 | 1.05
323.15 K, x2 = 0 | 864.5 | 2.092
323.15 K, x2 = 0.1055 | 847.66 | 1.842
323.15 K, x2 = 0.2016 | 833.06 | 1.667
323.15 K, x2 = 0.3019 | 818.17 | 1.501
323.15 K, x2 = 0.398 | 804.36 | 1.376
323.15 K, x2 = 0.5006 | 790.16 | 1.275
323.15 K, x2 = 0.5953 | 777.36 | 1.195
323.15 K, x2 = 0.6911 | 764.85 | 1.119
323.15 K, x2 = 0.7985 | 751.27 | 1.041
323.15 K, x2 = 0.8888 | 740.21 | 0.978
328.15 K, x2 = 0 | 860.93 | 1.915
328.15 K, x2 = 0.1055 | 844.08 | 1.693
328.15 K, x2 = 0.2016 | 829.47 | 1.536
328.15 K, x2 = 0.3019 | 814.58 | 1.389
328.15 K, x2 = 0.398 | 800.76 | 1.276
328.15 K, x2 = 0.5006 | 786.54 | 1.184
328.15 K, x2 = 0.5953 | 773.74 | 1.112
328.15 K, x2 = 0.6911 | 761.22 | 1.043
328.15 K, x2 = 0.7985 | 747.63 | 0.973
328.15 K, x2 = 0.8888 | 736.56 | 0.914
333.15 K, x2 = 0 | 857.35 | 1.762
333.15 K, x2 = 0.1055 | 840.5 | 1.563
333.15 K, x2 = 0.2016 | 825.89 | 1.423
333.15 K, x2 = 0.3019 | 810.98 | 1.288
333.15 K, x2 = 0.398 | 797.16 | 1.186
333.15 K, x2 = 0.5006 | 782.93 | 1.104
333.15 K, x2 = 0.5953 | 770.11 | 1.039
333.15 K, x2 = 0.6911 | 757.59 | 0.976
333.15 K, x2 = 0.7985 | 743.98 | 0.91
333.15 K, x2 = 0.8888 | 732.9 | 0.856
